Tested on: balloon-injured rat carotid artery
Assay: Balloon-injury model of rat carotid artery
Type: in vivo
Procedure: Animal experiments were performed in compliance with the guidelines of Institutional Animal Care and Use Committee (IACUC) of the Ewha Womans University. Balloon injury was created using an infiltrated 2 F Fogarty balloon catheter in the left common carotid artery as follows: after the ten-week-old male Sprague-Dawley rats were anaesthetized by isoflurane gas (N2O:O2/70%:30%) inhalation, the left external carotid artery was exposed, and its branches were electrocoagulated. A catheter was pushed 1 cm in through the transverse arteriotomy of the external carotid artery, and the endothelial denudation was achieved by three passes along the common carotid artery. After the catheter was removed, the punched area was sealed and the clapped common carotid artery was opened for resuming the blood flow. Unless otherwise stated, the rats were recovered in a cage for 10 days, and subjected to histological and immunological analyses.
Rats were anesthetized, and the common carotid artery was excised after transcardiac perfusion-fixation with a heparinized saline solution containing 3.7% formaldehyde. The vessels were paraffin embedded and sectioned using a rotary microtome (Leica RM2255). Two serial tissue sections (4 μm in thickness) were obtained from the middle area of common carotid arteries, and stained with haematoxylin and eosin (HE). The luminal, internal elastic laminal, and external elastic laminal areas were measured using NIH Image v1.62. The intimal and medial areas were determined by subtracting the luminal area from the internal elastic area and subtracting the internal elastic area from the external elastic area. The values from the two serial sections for each rat were averaged for analysis.
For the in vivo injection of siRNA, a siRNA mixture specific to rat PrxII (200 nM) was premixed with a siPORT™ NeoFX™ reagent according to the instructions of the manufacturer (Ambion). Immediately after the balloon injury, the siRNA-injected mixture (200 μL) was injected through a catheter after briefly washed with Opti-MEM. After the incubation for 15 minutes, the blood flow was resumed. A siGLO-Red (Dharmacon), which is fluorescent dye-conjugated control siRNA, was used for optimizing in vivo injection efficiency. Similarly, the ETP compound (200 nM in DMSO) was injected through a catheter and incubated for 30 minutes.
Immunohistochemistry for the overoxidized 2-Cys Prxs was performed on the paraffin sections using an anti-Prx-SO2/3 antibody (1:1000 dilution). Briefly, the sections were de-waxed in xylene and rehydrated in ethanol, and subsequently the antigen retrieval was performed by boiling in a citric buffer solution (pH 6.0). After that, the sections were incubated with a primary antibody for 48 hours at 4° C. After washing three times with a phosphatebuffered saline solution, the sections were incubated with a peroxidase-conjugated secondary antibody and stained with a 3′,3′-diaminobenzidine (DAB) substrate solution. For negative staining, the Prx-502/3 antibody was blocked with the corresponding antigenic peptide (DFTFVC(SO2/3)PTEI). For indirect immunofluorescence staining, the paraffin sections were blocked with 5% normal rabbit serum (Vector Laboratories) in PBST (a PBS solution of 0.3% Triton X-100) for 1 hour at room temperature. The sections were then incubated overnight at 4° C. with the […] against rat smooth muscle α-actin (1:300 dilution) and rat CD31 (PECAM-1, 1:200 dilution). The nuclei were labeled with DAPI. After several PBST washes, the samples were incubated for 2 hours at room temperature with Alexa Fluor 568-conjugated donkey anti-mouse and Alexa Fluor 488-conjugated donkey anti-rabbit IgG antibodies. The fluorescence images were recorded on three random fields per tissue section at a screen magnification of 100× using a LSM 510 Meta confocal microscope equipped with argon and helium-neon lasers.
The paraffin sections were incubated for 10 minutes in PBS containing 0.1% Triton X-100. […]

CN1C(=O)[C@]23CC4=CC=C[C@H](O)[C@H]4N2C(=O)[C@@]1(CO)SS3 [gliotoxin]
endothelial repair / reendothelialization (CD31 immunofluorescence) (local administration after balloon injury): endothelium monolayer in contact with lumen was formed
intimal hyperplasia (ratio of intima versus media, HE staining) (local administration to the lumen through catheter, 30 minutes, ETP derivatives 200 nM, 10 days recovery): notably suppressed
cell death by TUNEL staining (nanomolar range, local administration): did not induce cell death
luminal surface endothelial cells by scanning electron microscopy (rat, in vivo): spread and formed a uniform layer with tight junction
overoxidation of 2-Cys-Prx (Prx-SO2/3 immunohistochemistry) versus control group (rat, in vivo): no significant differences
